Measured values as given in ChEMBL document CHEMBL3885881, “DrugMatrix”.

Species on record: Rattus norvegicus
Assay: DrugMatrix - Regimen: Daily Repeat
Format: toxicity, organism-based, Sprague-Dawley
Parameters: regimen Daily Repeat, gender Male, age 6-8 weeks
Conditions: in vivo, po, route oral GAVAGE, vehicle 100 % WATER; for ABSOLUTE BASOPHIL / ABSOLUTE EOSINOPHIL / ABSOLUTE LYMPHOCYTE / ABSOLUTE MONOCYTE / ABSOLUTE SEGMENTED NEUTROPHIL / BASOPHIL / EOSINOPHIL / ERYTHROCYTE COUNT / HEMATOCRIT / HEMOGLOBIN / LEUKOCYTE COUNT / LYMPHOCYTE / MEAN CORPUSCULAR HEMOGLOBIN / MEAN CORPUSCULAR HEMOGLOBIN CONCENTRATION / MEAN CORPUSCULAR VOLUME / MONOCYTE / NEUTROPHIL / NUCLEATED RED BLOOD CELLS / PLATELET COUNT: tissue Blood; for ALANINE AMINOTRANSFERASE / ALBUMIN / ALKALINE PHOSPHATASE / ASPARTATE AMINOTRANSFERASE / BLOOD UREA NITROGEN / CARBON DIOXIDE / CHLORIDE / CHOLESTEROL / CREATINE PHOSPHOKINASE / CREATININE / GLUCOSE / LACTATE DEHYDROGENASE / LIPASE / PHOSPHORUS / POTASSIUM / SODIUM / TOTAL BILIRUBIN / TOTAL PROTEIN / URIC ACID: tissue Plasma
[1] = 0 mg/kg, 72 h, dose level Control, time 3 day
[2] = 0 mg/kg, 120 h, dose level Control, time 5 day
[3] = 120 mg/kg, 72 h, dose level Low, time 3 day

In the case of `CCN(CC)CCNC(=O)c1cc(S(C)(=O)=O)ccc1OC` [TIAPRIDE], the “ABSOLUTE BASOPHIL” value [1] is reported as 0 CELLS/uL, the “ABSOLUTE EOSINOPHIL” value [1] is reported as 151.33 CELLS/uL and the “ABSOLUTE LYMPHOCYTE” value [1] is reported as 10599.5 CELLS/uL. For the same compound, the “ABSOLUTE MONOCYTE” value [1] was 109.5 CELLS/uL, the “ABSOLUTE SEGMENTED NEUTROPHIL” value [1] was 1139.67 CELLS/uL and the BASOPHIL [1] was 0%. The EOSINOPHIL [1] was 0.83%, the “ERYTHROCYTE COUNT” value [1] was 5.54 x10E6/uL and the HEMATOCRIT [1] was 35.35%. For the same compound, the HEMOGLOBIN [1] was 13.22 G/DL, the “LEUKOCYTE COUNT” value [1] was 12 x10E3/uL and the LYMPHOCYTE [1] was 89%. For the same compound, the “MEAN CORPUSCULAR HEMOGLOBIN” value [1] was 23.88 pg, the “MEAN CORPUSCULAR HEMOGLOBIN CONCENTRATION” value [1] was 37.4 G/DL and the “MEAN CORPUSCULAR VOLUME” value [1] was 63.85 fL. The MONOCYTE [1] was 1%, the NEUTROPHIL [1] was 9.17% and the “NUCLEATED RED BLOOD CELLS” value [1] was 0 /100WBC. For the same compound, the “PLATELET COUNT” value [1] was 1333.33 x10E3/uL, the “ALANINE AMINOTRANSFERASE” value [1] was 53.17 u/L and the ALBUMIN [1] was 4.32 G/DL. For the same compound, the “ALKALINE PHOSPHATASE” value [1] was 404.33 u/L, the “ASPARTATE AMINOTRANSFERASE” value [1] was 83.17 u/L and the “BLOOD UREA NITROGEN” value [1] was 15.67 mg/dL. The “CARBON DIOXIDE” value [1] was 27.33 mmol/L, the CHLORIDE [1] was 101.83 MEQ/L and the CHOLESTEROL [1] was 68.67 mg/dL. For the same compound, the “CREATINE PHOSPHOKINASE” value [1] was 276.17 u/L, the CREATININE [1] was 0.18 mg/dL and the GLUCOSE [1] was 163.5 mg/dL. For the same compound, the “LACTATE DEHYDROGENASE” value [1] was 144.67 u/L, the LIPASE [1] was 8.83 u/L and the PHOSPHORUS [1] was 11.72 mg/dL. For the same compound, the POTASSIUM [1] was 5.99 MEQ/L, the SODIUM [1] was 143.57 MEQ/L and the “TOTAL BILIRUBIN” value [1] was 0.2 mg/dL. For the same compound, the “TOTAL PROTEIN” value [1] was 6.1 G/DL, the “URIC ACID” value [1] was 1.38 mg/dL and the “ABSOLUTE BASOPHIL” value [2] was 0 CELLS/uL. The “ABSOLUTE EOSINOPHIL” value [2] was 248.67 CELLS/uL, the “ABSOLUTE LYMPHOCYTE” value [2] was 12977.83 CELLS/uL and the “ABSOLUTE MONOCYTE” value [2] was 19.67 CELLS/uL. For the same compound, the “ABSOLUTE SEGMENTED NEUTROPHIL” value [2] was 1137.17 CELLS/uL, the BASOPHIL [2] was 0% and the EOSINOPHIL [2] was 1.67%. The “ERYTHROCYTE COUNT” value [2] was 5.82 x10E6/uL, the HEMATOCRIT [2] was 36.35% and the HEMOGLOBIN [2] was 13.58 G/DL. The “LEUKOCYTE COUNT” value [2] was 14.38 x10E3/uL, the LYMPHOCYTE [2] was 90.5% and the “MEAN CORPUSCULAR HEMOGLOBIN” value [2] was 23.32 pg. For the same compound, the “MEAN CORPUSCULAR HEMOGLOBIN CONCENTRATION” value [2] was 37.42 G/DL, the “MEAN CORPUSCULAR VOLUME” value [2] was 62.42 fL and the MONOCYTE [2] was 0.17%. For the same compound, the NEUTROPHIL [2] was 7.67%, the “NUCLEATED RED BLOOD CELLS” value [2] was 0 /100WBC and the “PLATELET COUNT” value [2] was 1337.67 x10E3/uL. The “ALANINE AMINOTRANSFERASE” value [2] was 48.5 u/L, the ALBUMIN [2] was 4.32 G/DL and the “ALKALINE PHOSPHATASE” value [2] was 354.33 u/L. For the same compound, the “ASPARTATE AMINOTRANSFERASE” value [2] was 80 u/L, the “BLOOD UREA NITROGEN” value [2] was 16 mg/dL and the “CARBON DIOXIDE” value [2] was 27.33 mmol/L. For the same compound, the CHLORIDE [2] was 100.33 MEQ/L, the CHOLESTEROL [2] was 68 mg/dL and the “CREATINE PHOSPHOKINASE” value [2] was 325.17 u/L. The CREATININE [2] was 0.23 mg/dL, the GLUCOSE [2] was 172 mg/dL and the “LACTATE DEHYDROGENASE” value [2] was 254.83 u/L. It also gave an LIPASE [2] of 8.33 u/L, a PHOSPHORUS [2] of 12.17 mg/dL and a POTASSIUM [2] of 6.28 MEQ/L. For the same compound, the SODIUM [2] was 143.57 MEQ/L, the “TOTAL BILIRUBIN” value [2] was 0.18 mg/dL and the “TOTAL PROTEIN” value [2] was 6.12 G/DL. The “URIC ACID” value [2] was 1.78 mg/dL, the “ABSOLUTE BASOPHIL” value [3] was 0 CELLS/uL and the “ABSOLUTE EOSINOPHIL” value [3] was 161.33 CELLS/uL. The “ABSOLUTE LYMPHOCYTE” value [3] was 8742.33 CELLS/uL, the “ABSOLUTE MONOCYTE” value [3] was 34.33 CELLS/uL and the “ABSOLUTE SEGMENTED NEUTROPHIL” value [3] was 962 CELLS/uL. The BASOPHIL [3] was 0%, the EOSINOPHIL [3] was 1.33% and the “ERYTHROCYTE COUNT” value [3] was 5.57 x10E6/uL. For the same compound, the HEMATOCRIT [3] was 35.07%, the HEMOGLOBIN [3] was 13.23 G/DL and the “LEUKOCYTE COUNT” value [3] was 9.9 x10E3/uL. The LYMPHOCYTE [3] was 88.33%, the “MEAN CORPUSCULAR HEMOGLOBIN” value [3] was 23.77 pg and the “MEAN CORPUSCULAR HEMOGLOBIN CONCENTRATION” value [3] was 37.7 G/DL. For the same compound, the “MEAN CORPUSCULAR VOLUME” value [3] was 63.03 fL, the MONOCYTE [3] was 0.33% and the NEUTROPHIL [3] was 10%. The “NUCLEATED RED BLOOD CELLS” value [3] was 0 /100WBC, the “PLATELET COUNT” value [3] was 1263 x10E3/uL and the “ALANINE AMINOTRANSFERASE” value [3] was 47.67 u/L. For the same compound, the ALBUMIN [3] was 4.13 G/DL, the “ALKALINE PHOSPHATASE” value [3] was 345 u/L and the “ASPARTATE AMINOTRANSFERASE” value [3] was 82.33 u/L. The “BLOOD UREA NITROGEN” value [3] was 15.33 mg/dL, the “CARBON DIOXIDE” value [3] was 27.33 mmol/L and the CHLORIDE [3] was 103 MEQ/L. The CHOLESTEROL [3] was 60.67 mg/dL, the “CREATINE PHOSPHOKINASE” value [3] was 172.67 u/L and the CREATININE [3] was 0.19 mg/dL. The GLUCOSE [3] was 170.33 mg/dL, the “LACTATE DEHYDROGENASE” value [3] was 114 u/L and the LIPASE [3] was 8 u/L. For the same compound, the PHOSPHORUS [3] was 12.83 mg/dL, the POTASSIUM [3] was 5.99 MEQ/L and the SODIUM [3] was 145.83 MEQ/L. For the same compound, the “TOTAL BILIRUBIN” value [3] was 0.2 mg/dL, the “TOTAL PROTEIN” value [3] was 6.17 G/DL and the “URIC ACID” value [3] was 1.33 mg/dL.
